This is an account of results in patent US20180141962A1, “AZACARBAZOLE BTK INHIBITORS” (MERCK SHARP & DOHME CORP., priority 2015, published 2018).

For orientation: IC50 means the concentration at which inhibition is half-maximal.

The target in one experiment is T1, BTK enzyme (recombinant full-length BTK, hBTK) (Homo sapiens, UniProt Q06187).
T1 construct: recombinant protein from baculovirus-transfected Sf9 cells: full-length BTK, 6HIS-tag cleaved; 6HIS (cleaved yes); made in house; host or cells: baculovirus-transfected Sf9 cells
T1 sequence (Q06187 whole entry): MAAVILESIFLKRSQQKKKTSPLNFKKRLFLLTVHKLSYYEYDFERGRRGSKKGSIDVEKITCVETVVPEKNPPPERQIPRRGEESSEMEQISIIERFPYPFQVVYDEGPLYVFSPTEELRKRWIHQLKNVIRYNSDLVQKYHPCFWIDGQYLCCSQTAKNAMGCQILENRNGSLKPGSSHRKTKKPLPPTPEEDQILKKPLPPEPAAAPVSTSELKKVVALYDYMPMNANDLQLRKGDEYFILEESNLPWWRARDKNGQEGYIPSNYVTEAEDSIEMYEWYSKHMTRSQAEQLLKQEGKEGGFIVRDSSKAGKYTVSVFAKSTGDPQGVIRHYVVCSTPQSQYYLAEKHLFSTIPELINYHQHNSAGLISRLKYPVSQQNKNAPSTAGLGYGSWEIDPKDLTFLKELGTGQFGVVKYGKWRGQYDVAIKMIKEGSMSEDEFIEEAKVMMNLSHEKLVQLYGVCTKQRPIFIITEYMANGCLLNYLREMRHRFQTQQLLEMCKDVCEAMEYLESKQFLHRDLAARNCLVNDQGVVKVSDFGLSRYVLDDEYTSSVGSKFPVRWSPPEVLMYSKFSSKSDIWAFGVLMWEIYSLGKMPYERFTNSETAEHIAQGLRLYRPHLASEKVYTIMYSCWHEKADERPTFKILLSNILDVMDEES
As to the kind of experiment: Btk enzyme activity assay, LANCE TR-FRET. It counts as biochemical. Particulars: 50 pM hBTK, 2 μM biotin-A5-peptide, 25 μM ATP; 60 minute compound & enzyme incubation; 120 minutes reaction; read-out: BTK binding potency IC50. On the procedure: Btk Enzyme Activity Assay Methods
BTK enzymatic activity was determined with the LANCE (Lanthanide Chelate Excite) TR-FRET (lime-resolved fluorescence resonance energy transfer) assay. […] Phosphorylation reactions were allowed to proceed for 120 minutes. […] After 60 minutes incubation with detection reagents, reaction plates were read on a PerkinElmer EnVision plate reader using standard TR-FRET protocol. Briefly, excitation of donor molecules (Eu-chelate:anti-phospho-antibody) with a laser light source at 337 nm produces energy that can be transferred to Dylight-650 acceptor molecules if this donor:acceptor pair is within close proximity. Fluorescence intensity at both 665 nm (acceptor) and 615 nm (donor) are measured and a TR-FRET ratio calculated for each well (acceptor intensity/donor intensity). IC50 values were determined by 4 parameter robust fit of TR-FRET ratio values vs. (Log10) compound concentrations.
Turning to `CC(C)N1CCC(c2ccc3c(c2)[nH]c2c(C(N)=O)cnc(N4CCC[C@@]5(CCN(C)C5=O)C4)c23)CC1` [Example 76, 7-[1-(1-methylethyl)piperidin-4-yl]-1-[(5R)-2-methyl-1-oxo-2,7-diazaspiro[4.5]dec-7-yl]-5H-pyrido[4,3-b]indole-4-carboxamide], the IC50 came out at 0.64 nM.
On to `NC(=O)c1cnc(N2CCC[C@@]3(CCNC3=O)C2)c2c1[nH]c1cc(-c3ccc(=O)[nH]c3)ccc12` [Example 68, 1-[(5R)-1-oxo-2,7-diazaspiro[4.5]dec-7-yl]-7-(6-oxo-1,6-dihydropyridin-3-yl)-5H-pyrido[4,3-b]indole-4-carboxamide], for which the IC50 was found to be 3.9 nM.
Turning to `NC(=O)c1cnc(N2CCC[C@]3(C2)C(=O)NC[C@H]3O)c2c1[nH]c1ccccc12` (stereo in doubt) [Example 17, 1-[(4S,5R)-4-hydroxy-1-oxo-2,7-diazaspiro[4.5]dec-7-yl]-5H-pyrido[4,3-b]indole-4-carboxamide], the IC50 is 538 nM.
On the same count and under the same terms, with `NC(=O)c1cnc(N2CCCC3(CCNC3=O)C2)c2c1[nH]c1ccc(C(=O)O)cc12` (stereo not shown) [Example 84, 4-carbamoyl-1-(1-oxo-2,7-diazaspiro[4.5]dec-7-yl)-5H-pyrido[4,3-b]indole-8-carboxylic acid] the figure was 48.8 nM; with `CC(=O)N1CCC2(C1)CN(c1ncc(C(N)=O)c3[nH]c4ccccc4c13)C2` [Example 27, 1-(6-acetyl-2,6-diazaspiro[3.4]oct-2-yl)-5H-pyrido[4,3-b]indole-4-carboxamide], 232 nM; with `NC(=O)c1cnc(N2CCC3(CC2)CNC3)c2c1[nH]c1ccccc12` [Example 19, 1-(2,7-diazaspiro[3.5]non-7-yl)-5H-pyrido[4,3-b]indole-4-carboxamide], 22 nM.
The same measure, in the same setting: to `COC(=O)CC1CCC(c2ccc3c(c2)[nH]c2c(C(N)=O)cnc(N4CCC[C@@]5(CCN(C)C5=O)C4)c23)CC1` (stereo partly drawn) [Example 81, methyl (4-{4-carbamoyl-1-[(5R)-2-methyl-1-oxo-2,7-diazaspiro[4.5]dec-7-yl]-5H-pyrido[4,3-b]indol-7-yl}cyclohexyl)acetate] belongs 5.5 nM.
Same read-out and setting: to `CC(C)(O)CN1CCC(c2ccc3c(c2)[nH]c2c(C(N)=O)cnc(N4CCCC5(CCNC5=O)C4)c23)CC1` (stereo not shown) [Example 54, 7-[1-(2-hydroxy-2-methylpropyl)piperidin-4-yl]-1-(1-oxo-2,7-diazaspiro[4.5]dec-7-yl)-5H-pyrido[4,3-b]indole-4-carboxamide] belongs 1.2 nM; to `COc1ccc(-c2ccc3c(c2)[nH]c2c(C(N)=O)cnc(N4CCC[C@@]5(CCN(C)C5=O)C4)c23)cn1` [Example 74, 7-(6-methoxypyridin-3-yl)-1-[(5R)-2-methyl-1-oxo-2,7-diazaspiro[4.5]dec-7-yl]-5H-pyrido[4,3-b]indole-4-carboxamide], 8.9 nM; to `O=C(NO)c1cnc(N2CCCC3(CCNC3=O)C2)c2c1[nH]c1ccccc12` (stereo not shown) [Example 9, N-hydroxy-1-(1-oxo-2,7-diazaspiro[4.5]dec-7-yl)-5H-pyrido[4,3-b]indole-4-carboxamide], 384 nM.
For the compound `CC(=O)N1CCC(c2ccc3[nH]c4c(C(N)=O)cnc(N5CCCC6(CCNC6=O)C5)c4c3c2)CC1` (stereo not shown) [Example 61, 8-(1-acetylpiperidin-4-yl)-1-(1-oxo-2,7-diazaspiro[4.5]dec-7-yl)-5H-pyrido[4,3-b]indole-4-carboxamide], the IC50 amounted to 81.8 nM.
`NC(=O)c1cnc(N2CCC[C@]3(C2)C(=O)NC[C@@H]3c2ccccc2)c2c1[nH]c1ccccc12` (single isomer, unassigned) [Example 89, 1-[(trans)-1-oxo-4-phenyl-2,7-diazaspiro[4.5]dec-7-yl]-5H-pyrido[4,3-b]indole-4-carboxamide]: the IC50 was determined as 669 nM.
The same measure, in the same setting: with `NC(=O)c1cnc(N2CCC[C@@]3(CCCN(c4ccc(F)cc4)C3=O)C2)c2c1[nH]c1ccccc12` [Example 1, (R)-1-(8-(4-fluorophenyl)-7-oxo-2,8-diazaspiro[5.5]undecan-2-yl)-5H-pyrido[4,3-b]indole-4-carboxamide] the figure was 149 nM.
The same measure, in the same setting: to `CN1CC[C@@]2(CCCN(c3ncc(C(N)=O)c4[nH]c5cc(-c6ccc(C(O)C(F)(F)F)cc6)ccc5c34)C2)C1=O` (stereo partly drawn) [Example 78, 1-[(5R)-2-methyl-1-oxo-2,7-diazaspiro[4.5]dec-7-yl]-7-[4-(2,2,2-trifluoro-1-hydroxyethyl)phenyl]-5H-pyrido[4,3-b]indole-4-carboxamide] belongs 59.9 nM; to `NC(=O)c1cnc(N2CCCC3(CCNC(=O)C3)C2)c2c1[nH]c1ccccc12` (stereo not shown) [Example 37, 1-(8-oxo-2,9-diazaspiro[5.5]undec-2-yl)-5H-pyrido[4,3-b]indole-4-carboxamide], 46.4 nM; to `CC(C)(C)OC(=O)N1CC2(CCN(c3ncc(C(N)=O)c4[nH]c5ccccc5c34)CC2)C1` [Example 16, tert-butyl 7-(4-carbamoyl-5H-pyrido[4,3-b]indol-1-yl)-2,7-diazaspiro[3.5]nonane-2-carboxylate], 98.7 nM.
With `COc1ccc(-c2ccc3c(c2)[nH]c2c(C(N)=O)cnc(N4CCC[C@@]5(CCNC5=O)C4)c23)cn1` [Example 67, 7-(6-methoxypyridin-3-yl)-1-[(5R)-1-oxo-2,7-diazaspiro[4.5]dec-7-yl]-5H-pyrido[4,3-b]indole-4-carboxamide], the IC50 was determined as 13.9 nM.
`CN1C[C@@H](CO)[C@@]2(CCCN(c3ncc(C(N)=O)c4[nH]c5ccccc5c34)C2)C1=O` (racemic) [Example 92, trans-1-(4-(hydroxymethyl)-2-methyl-1-oxo-2,7-diazaspiro[4.5]decan-7-yl)-5H-pyrido[4,3-b]indole-4-carboxamide]: the IC50 was 64 nM.
The same measure, in the same setting: with `CC(=O)N1CC2(CCCN(c3ncc(C(N)=O)c4[nH]c5ccccc5c34)C2)C1` [Example 29, 1-(2-acetyl-2,6-diazaspiro[3.5]non-6-yl)-5H-pyrido[4,3-b]indole-4-carboxamide] the figure was 271 nM; with `NC(=O)c1cnc(N2CCC[C@]3(CCCN(c4ccc(F)cc4)C3=O)C2)c2c1[nH]c1ccccc12` [Example 2, (S)-1-(8-(4-fluorophenyl)-7-oxo-2,8-diazaspiro[5.5]undecan-2-yl)-5H-pyrido[4,3-b]indole-4-carboxamide], 12.9 nM.
Still for that read-out and setting: with `CC(C)N1CCCC2(CCCN(c3ncc(C(N)=O)c4[nH]c5ccccc5c34)C2)C1=O` (stereo not shown) [Example 39, 1-[8-(1-methylethyl)-7-oxo-2,8-diazaspiro[5.5]undec-2-yl]-5H-pyrido[4,3-b]indole-4-carboxamide] the figure was 120 nM; with `COC(=O)N1CCC(c2ccc3[nH]c4c(C(N)=O)cnc(N5CCCC6(CCNC6=O)C5)c4c3c2)CC1` (stereo not shown) [Example 51, methyl 4-[4-carbamoyl-1-(1-oxo-2,7-diazaspiro[4.5]dec-7-yl)-5H-pyrido[4,3-b]indol-8-yl]piperidine-1-carboxylate], 87.9 nM.
The same measure, in the same setting: with `NC(=O)c1cnc(N2CCC[C@@]3(CCCN(c4ccc(F)cc4)C3=O)C2)c2c1[nH]c1ccc(F)cc12` [Example 6, 8-fluoro-1-[(6R)-8-(4-fluorophenyl)-7-oxo-2,8-diazaspiro[5.5]undec-2-yl]-5H-pyrido[4,3-b]indole-4-carboxamide] the figure was 853 nM.
`NC(=O)c1cnc(N2CCCC3(CCNC3=O)C2)c2c1[nH]c1ccc(C3CCNCC3)cc12` (stereo not shown) [Example 45, 1-(1-oxo-2,7-diazaspiro[4.5]dec-7-yl)-8-piperidin-4-yl-5H-pyrido[4,3-b]indole-4-carboxamide]: the IC50 turned out to be 204 nM.
The same measure, in the same setting: with `NC(=O)c1cnc(N2CCC3(CCNC3=O)CC2)c2c1[nH]c1ccccc12` [Example 11, 1-(1-oxo-2,8-diazaspiro[4.5]dec-8-yl)-5H-pyrido[4,3-b]indole-4-carboxamide] the figure was 31.1 nM; with `NC(=O)c1cnc(N2CCCC3(CCNC3=O)C2)c2c1[nH]c1cc(C3CCNCC3)ccc12` (stereo in doubt) [Example 64, 1-[(5R)-1-oxo-2,7-diazaspiro[4.5]dec-7-yl]-7-piperidin-4-yl-5H-pyrido[4,3-b]indole-4-carboxamide], 0.63 nM.
On the same count and under the same terms, with `NC(=O)c1cnc(N2CCC3(CCNCC3)C2)c2c1[nH]c1ccccc12` [Example 15, 1-(2,8-diazaspiro[4.5]dec-2-yl)-5H-pyrido[4,3-b]indole-4-carboxamide] the figure was 37.4 nM; with `Cc1noc(C)c1-c1ccc2c(c1)[nH]c1c(C(N)=O)cnc(N3CCC[C@@]4(CCN(C)C4=O)C3)c12` [Example 80, 7-(3,5-dimethylisoxazol-4-yl)-1-[(5R)-2-methyl-1-oxo-2,7-diazaspiro[4.5]dec-7-yl]-5H-pyrido[4,3-b]indole-4-carboxamide], 12.7 nM.

Still in this experiment, the particulars now being: BTK binding potency IC50 (nM), 50 pM hBTK, 2 μM biotin-A5-peptide, 25 μM ATP; 60 minute compound & enzyme incubation; 120 minutes reaction.
On to `NC(=O)c1cnc(N2CCCC3(CCNC3=O)C2)c2c1[nH]c1ccccc12` (stereo in doubt) [Example 40, 1-[(5R)-1-oxo-2,7-diazaspiro[4.5]dec-7-yl]-5H-pyrido[4,3-b]indole-4-carboxamide], for which the IC50 turned out to be 121 nM.
Same read-out and setting: to `NC(=O)c1cnc(N2CCCC3(CCNC3=O)C2)c2c1[nH]c1ccccc12` (stereo in doubt) [Example 41, 1-[(5S)-1-oxo-2,7-diazaspiro[4.5]dec-7-yl]-5H-pyrido[4,3-b]indole-4-carboxamide] belongs 10.7 nM.
On the same count and under the same terms, to `NC(=O)c1cnc(N2CCCC3(CCNC3=O)C2)c2c1[nH]c1ccccc12` (stereo not shown) [Example 34, 1-(1-oxo-2,7-diazaspiro[4.5]dec-7-yl)-5H-pyrido[4,3-b]indole-4-carboxamide] belongs 17.2 nM.
